The text below walks through data of patent US9999622B2, “Pyrazolothiazole compound and medicine comprising same” (NIPPON SHINYAKU CO., LTD., priority 2014, dated 2018).

In general, IC50 refers to the point on the concentration scale where inhibition reaches its midpoint.

One assay deals with T1, JAK1 (Homo sapiens, UniProt P23458).
T1 construct: purchased Carna Biosciences, Inc
Briefly: JAK tyrosine kinase inhibitory activity in the presence of 1 mM ATP (ELISA), JAK1. Format: biochemical. The procedure, abridged:
(§1)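 ELISA read-out: HRP-labelled anti-phosphotyrosine antibody with TMB, absorbance 450 nm, after 1 h kinase reaction at 30 °C in presence of 1 mM ATP. Kinase diluted to 7.5 nM (JAK1) or 0.75 nM (JAK2/JAK3) in Tris-HCl pH 7.5 buffer with DTT; compounds tested in duplicate.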
(In general: In an ELISA, binding on a coated surface is turned into a signal by an enzyme label.)

The next assay addresses T2, JAK2 (Homo sapiens, UniProt O60674).
T2 construct: purchased Carna Biosciences, Inc
Kind of assay: JAK tyrosine kinase inhibitory activity in the presence of 1 mM ATP (ELISA), JAK2. The class given is biochemical. The procedure, abridged:
as §1

A further assay has as its target T3, JAK3 (Homo sapiens, UniProt P52333).
T3 construct: purchased Carna Biosciences, Inc
T3 sequence (P52333 1-1124): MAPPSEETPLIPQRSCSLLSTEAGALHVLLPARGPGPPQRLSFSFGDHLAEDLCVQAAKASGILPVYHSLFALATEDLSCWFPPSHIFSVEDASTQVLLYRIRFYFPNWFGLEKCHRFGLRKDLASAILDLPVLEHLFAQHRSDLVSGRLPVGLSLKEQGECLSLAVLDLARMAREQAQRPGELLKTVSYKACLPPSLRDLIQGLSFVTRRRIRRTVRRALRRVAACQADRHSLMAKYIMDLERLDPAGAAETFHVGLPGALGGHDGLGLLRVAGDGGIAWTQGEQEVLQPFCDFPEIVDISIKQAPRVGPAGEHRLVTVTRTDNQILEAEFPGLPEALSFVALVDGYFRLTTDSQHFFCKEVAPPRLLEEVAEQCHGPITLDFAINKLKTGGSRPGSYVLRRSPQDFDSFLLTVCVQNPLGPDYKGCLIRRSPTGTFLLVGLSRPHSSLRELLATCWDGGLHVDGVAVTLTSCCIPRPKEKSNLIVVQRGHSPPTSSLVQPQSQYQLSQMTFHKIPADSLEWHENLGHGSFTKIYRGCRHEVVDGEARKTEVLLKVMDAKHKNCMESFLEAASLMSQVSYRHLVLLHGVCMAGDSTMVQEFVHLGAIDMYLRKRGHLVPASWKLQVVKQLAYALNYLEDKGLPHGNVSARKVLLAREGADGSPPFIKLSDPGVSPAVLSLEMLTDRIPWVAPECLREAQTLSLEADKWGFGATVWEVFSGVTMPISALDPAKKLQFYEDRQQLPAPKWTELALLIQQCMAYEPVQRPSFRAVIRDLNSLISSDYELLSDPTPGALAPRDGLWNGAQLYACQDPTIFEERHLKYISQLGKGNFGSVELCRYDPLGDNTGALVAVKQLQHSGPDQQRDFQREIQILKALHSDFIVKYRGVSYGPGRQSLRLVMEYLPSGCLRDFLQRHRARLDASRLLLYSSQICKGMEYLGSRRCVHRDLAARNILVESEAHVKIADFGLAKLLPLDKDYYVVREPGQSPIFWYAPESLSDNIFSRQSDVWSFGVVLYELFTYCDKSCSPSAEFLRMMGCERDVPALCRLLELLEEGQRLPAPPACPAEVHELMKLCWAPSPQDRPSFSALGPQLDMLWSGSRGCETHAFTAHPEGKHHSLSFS
Kind of assay: JAK tyrosine kinase inhibitory activity in the presence of 1 mM ATP (ELISA), JAK3. The class given is biochemical. The essentials: as §1

The test system of assay [1] is Aspergillus-induced airway inflammation model. Kind of assay: Inhibitory effect on Aspergillus-induced airway inflammation model. The class given is in vivo. The settings on record: Mus musculus, Eosinophil, po, 240 h, mice, 10 mg/mL suspension at 10 mL/kg twice a day Day 0 to Day 9, BALF collected at Day 10, read-out: Inhibition rate on count of invasive eosinophil in BALF (%). Here is the method: Aspergillus fumigatus extracts (Greer laboratories, Inc.) were adjusted to 400 μg/mL with PBS. The Aspergillus fumigatus solutions thus prepared were administered to mice as nasal drops (50 μL) on Day 0, Day 1, Day 7 and Day 8. The nasal drop was administered one hour after the administration of test compounds in the morning. The test compound was administered twice a day in the morning and evening of Day 0 to Day 9. The test compound was suspended in 0.5% methylcellulose at 10 mg/mL, and orally administered at the dosage of 10 mL/kg. The bronchoalveolar lavage fluid (BALF) was collected at Day 10, and the total white blood cell count in BALF was measured using Celltac (NIHON KOHDEN). The ratio of eosinophil in total white blood cell was calculated using ADVIA 120 (Siemens Healthcare Diagnostics), and the ratio was multiplied by the total white blood cell count to determine the eosinophil count in BALF. The inhibition rate of the test compound was determined, assuming the inhibitory ratio in the treatment with Aspergillus fumigatus extract and 0.5% methylcellulose as 0% and the inhibitory ratio in the treatment without Aspergillus fumigatus extract but with 0.5% methylcellulose as 100%.

T1 sequence (P23458 whole entry): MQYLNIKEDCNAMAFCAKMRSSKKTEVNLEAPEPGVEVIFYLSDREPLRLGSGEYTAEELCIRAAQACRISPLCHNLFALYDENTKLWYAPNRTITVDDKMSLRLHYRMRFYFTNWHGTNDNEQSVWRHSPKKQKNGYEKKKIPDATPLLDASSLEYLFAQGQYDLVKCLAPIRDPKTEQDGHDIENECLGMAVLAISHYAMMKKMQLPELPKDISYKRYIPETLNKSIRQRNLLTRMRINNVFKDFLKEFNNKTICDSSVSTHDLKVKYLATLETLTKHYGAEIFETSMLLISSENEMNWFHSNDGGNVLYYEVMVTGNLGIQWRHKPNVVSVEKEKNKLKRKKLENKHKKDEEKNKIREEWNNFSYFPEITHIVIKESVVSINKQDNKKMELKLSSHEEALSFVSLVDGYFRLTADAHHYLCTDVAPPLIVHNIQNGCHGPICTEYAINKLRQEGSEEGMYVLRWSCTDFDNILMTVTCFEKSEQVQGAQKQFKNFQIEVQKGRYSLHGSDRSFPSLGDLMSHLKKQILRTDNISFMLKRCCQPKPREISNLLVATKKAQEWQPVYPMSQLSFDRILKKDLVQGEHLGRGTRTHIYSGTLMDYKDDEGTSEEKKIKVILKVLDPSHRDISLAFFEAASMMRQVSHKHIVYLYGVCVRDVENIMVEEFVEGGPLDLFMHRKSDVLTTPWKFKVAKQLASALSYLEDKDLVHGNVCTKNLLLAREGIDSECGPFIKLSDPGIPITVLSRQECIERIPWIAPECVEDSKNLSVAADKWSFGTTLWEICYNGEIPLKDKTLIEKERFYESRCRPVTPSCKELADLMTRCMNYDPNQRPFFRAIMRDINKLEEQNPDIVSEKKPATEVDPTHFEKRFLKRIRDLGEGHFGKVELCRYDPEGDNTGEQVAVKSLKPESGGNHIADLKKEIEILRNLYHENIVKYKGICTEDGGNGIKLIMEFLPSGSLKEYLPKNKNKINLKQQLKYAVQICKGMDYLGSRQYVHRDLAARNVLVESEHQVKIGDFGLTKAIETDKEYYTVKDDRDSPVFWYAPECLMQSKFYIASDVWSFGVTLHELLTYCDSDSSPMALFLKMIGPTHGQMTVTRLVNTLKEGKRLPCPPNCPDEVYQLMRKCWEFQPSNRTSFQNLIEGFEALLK
T2 sequence (O60674 whole entry): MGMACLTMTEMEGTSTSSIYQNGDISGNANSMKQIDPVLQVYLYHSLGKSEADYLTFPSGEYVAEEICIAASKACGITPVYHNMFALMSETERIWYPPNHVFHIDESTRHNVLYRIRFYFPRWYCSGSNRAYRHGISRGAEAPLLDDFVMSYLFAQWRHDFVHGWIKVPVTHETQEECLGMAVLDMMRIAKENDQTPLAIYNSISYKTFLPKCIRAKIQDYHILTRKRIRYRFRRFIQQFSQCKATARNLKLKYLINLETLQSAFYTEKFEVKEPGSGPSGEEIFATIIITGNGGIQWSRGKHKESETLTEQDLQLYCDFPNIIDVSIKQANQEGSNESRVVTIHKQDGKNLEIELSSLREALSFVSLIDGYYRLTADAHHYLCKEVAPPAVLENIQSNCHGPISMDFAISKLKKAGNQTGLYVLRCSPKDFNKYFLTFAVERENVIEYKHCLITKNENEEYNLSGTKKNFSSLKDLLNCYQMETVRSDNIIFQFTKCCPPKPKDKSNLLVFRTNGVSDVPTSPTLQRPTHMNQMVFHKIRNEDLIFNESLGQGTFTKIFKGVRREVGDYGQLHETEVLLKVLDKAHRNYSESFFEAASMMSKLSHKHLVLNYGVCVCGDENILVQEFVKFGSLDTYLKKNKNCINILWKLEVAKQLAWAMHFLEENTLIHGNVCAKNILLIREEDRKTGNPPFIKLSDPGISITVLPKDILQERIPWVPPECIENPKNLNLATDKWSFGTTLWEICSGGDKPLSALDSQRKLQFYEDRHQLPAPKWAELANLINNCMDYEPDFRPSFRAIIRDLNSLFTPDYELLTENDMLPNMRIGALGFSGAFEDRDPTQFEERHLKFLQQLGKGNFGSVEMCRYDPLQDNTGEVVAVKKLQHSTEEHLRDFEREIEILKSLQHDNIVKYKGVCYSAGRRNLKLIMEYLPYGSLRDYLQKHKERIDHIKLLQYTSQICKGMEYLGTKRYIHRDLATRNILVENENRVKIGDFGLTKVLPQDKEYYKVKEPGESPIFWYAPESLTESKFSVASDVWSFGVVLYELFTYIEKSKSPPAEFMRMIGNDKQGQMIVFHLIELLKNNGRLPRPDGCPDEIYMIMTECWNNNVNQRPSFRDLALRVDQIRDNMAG

For the molecule `CCOC(=O)NC1CCN(C(=O)c2cc(N[C@@H](C)C3CC3)nc(-c3cnn4ccsc34)n2)CC1` [Example 28, Ethyl (1-{[6-{[(1S)-1-cyclopropylethyl]amino}-2-(pyrazolo[5,1-b][1,3]thiazol-7-yl)pyrimidin-4-yl]carbonyl}piperidin-4-yl)carbamate], the IC50 on JAK1 was 120 nM; on JAK2, 2100 nM; on JAK3, more than 10000 nM. The inhibition in vivo at 10000 µg/mL, 100 mg/kg in assay [1] is 52%.
